Experimental findings from patent publication US12441768B2, “Compositions and methods for treating endometriosis” (EndoMet Biosciences, Inc., priority 2018, dated 2025) are described below.

This assay has as its target T1, β-catenin (Homo sapiens, UniProt P35222).
T1 sequence (P35222 1-781): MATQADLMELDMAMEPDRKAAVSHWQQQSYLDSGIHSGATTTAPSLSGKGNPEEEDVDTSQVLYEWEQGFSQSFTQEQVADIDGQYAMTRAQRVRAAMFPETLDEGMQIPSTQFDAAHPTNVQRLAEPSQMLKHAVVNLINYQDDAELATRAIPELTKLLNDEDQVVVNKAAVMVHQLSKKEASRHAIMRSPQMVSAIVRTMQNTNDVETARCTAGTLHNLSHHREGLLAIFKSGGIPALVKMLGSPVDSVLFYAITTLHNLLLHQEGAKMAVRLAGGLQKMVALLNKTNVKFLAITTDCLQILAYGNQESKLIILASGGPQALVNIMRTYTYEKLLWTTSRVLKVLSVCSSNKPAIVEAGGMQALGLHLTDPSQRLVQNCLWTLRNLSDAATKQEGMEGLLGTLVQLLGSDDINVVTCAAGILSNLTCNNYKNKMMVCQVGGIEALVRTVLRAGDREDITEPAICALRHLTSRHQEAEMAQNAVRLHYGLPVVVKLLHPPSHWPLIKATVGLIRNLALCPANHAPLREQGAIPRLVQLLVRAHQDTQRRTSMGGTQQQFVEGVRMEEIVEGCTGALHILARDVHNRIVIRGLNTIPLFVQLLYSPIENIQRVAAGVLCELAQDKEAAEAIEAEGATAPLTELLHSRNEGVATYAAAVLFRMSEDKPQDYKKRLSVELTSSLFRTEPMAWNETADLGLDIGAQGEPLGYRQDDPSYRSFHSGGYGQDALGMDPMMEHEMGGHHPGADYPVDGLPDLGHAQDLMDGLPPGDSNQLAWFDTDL
In words: KD50 measurement using competitive fluorescence polarization (FP) with labelled TCF4. The assay is classed as binding. As to conditions: for β-Cat FP Hill slope / Kd: fluorescence polarization, β-catenin; for Kd: read-out: β-Cat FP KD. The source says:
Fluorescence polarization (FP) is another method used to analyze protein-ligand interactions. This methodology measures the change in fluorescence light emitted by a labelled compound free vs. conjugated to another compound in solution. Upon binding of the fluorescent molecule to a complex, polarization increases because of limited rotation of the fluorescent tracer. Competitive FP is often utilized in drug screens as it is formatted for high throughput screens in a plate format. This immunoassay is performed by introducing a non-conjugated drug to compete for binding to the labelled competitor-ligand complex, leading to a reduction in polarization. TCF4 protein is utilized for the competitive assay as (1) this protein influences the full activation of the Wnt pathway and (2) shares homology with the β-catenin inhibitors. Exemplary methodology is described in Example 13. Data were analyzed and plotted in Microsoft Excel (Microsoft, Redmond, WA).
5 nM of labelled TCF4 protein was added to solution of 100 nM of β-catenin and incubated at room temperature in 96-well plates (Greiner 96 Flat transparent plates, Millipore Sigma, Carlsbad CA). Varying concentrations of β-catenin inhibitor candidate (SEQ ID NO: 404) were then added in a series of serial dilutions from 10 nM to 30 uM of inhibitor in different wells of the plate. The fluorescence polarization was read by Infinite M1000 (Tecan, Baldwin Park CA) at excitation wavelength of 470 nm and measured at emission wavelength of 520 nm. […] The experiments were performed three times and data were analyzed and plotted in Microsoft Excel (Microsoft, Redmond, WA).
In general terms: In fluorescence polarisation assays a small probe gives low polarisation when free and higher when bound to something large.

Where a SMILES comes first, the peptide text is derived from it.

Turning to `CC[C@H](C)[C@@H]1NC(=O)[C@H](CC(C)C)NC(=O)[C@@H](NC(=O)[C@H](Cc2c[nH]c3ccccc23)NC(=O)[C@@H](N)CCSC)CCCCNC(=O)CC[C@@H](C(=O)N[C@@H](Cc2ccccc2)C(=O)N[C@@H](Cc2c[nH]c3ccccc23)C(=O)NCC(=O)O)NC1=O` [compound 230] (HELM PEPTIDE1{M.W.K.L.I.E.F.W.G}$PEPTIDE1,PEPTIDE1,3:R3-6:R3$$$V2.0), the “β-Cat FP Hill slope” value was 0.77 and the Kd (as a rule, the concentration at which binding is half-saturated) was less than 400 nM.

`CC[C@H](C)[C@@H]1NC(=O)[C@H](CC(C)C)NC(=O)[C@@H](N)CCCCNC(=O)C[C@@H](C(=O)O)NC(=O)[C@H](Cc2c[nH]c3ccccc23)NC(=O)[C@H](Cc2ccccc2)NC(=O)[C@H](C)NC1=O` [compound 251] (HELM PEPTIDE1{K.L.I.A.F.W.D}$PEPTIDE1,PEPTIDE1,1:R3-7:R3$$$V2.0): the Kd was greater than 30000 nM. Regarding `CCC[C@H]1C(=O)N[C@@H](Cc2c[nH]c3ccccc23)C(=O)N[C@@H](CC(C)C)C(=O)N[C@@H](CO)C(=O)N[C@@H](CCCNC(=N)N)C(=O)N[C@@H](CCC(N)=O)C(=O)N[C@@H](Cc2c[nH]c3ccccc23)C(=O)N[C@@H]([C@@H](C)CC)C(=O)N[C@@H](C(C)C)C(=O)N[C@H](C(N)=O)CCCCNC(=O)CCCC(=O)N[C@@H](CCSC)C(=O)N[C@@H](Cc2c[nH]c3ccccc23)C(=O)N1C` [compound 5] (HELM PEPTIDE1{M.W.[CCC[C@@H](C(=O)[*:2])N(C)[*:1]].W.L.S.R.Q.W.I.V.K.[am]}|CHEM1{[O=C(CCCC(=O)[*:2])[*:1]]}$PEPTIDE1,CHEM1,1:R1-1:R1|PEPTIDE1,CHEM1,12:R3-1:R2$$$V2.0), the “β-Cat FP Hill slope” value is 0.5 and the Kd lay within 1000 to 10000 nM. Regarding `CC[C@H](C)[C@@H]1NC(=O)[C@H](CC(C)C)NC(=O)[C@H](Cc2ccccc2)NC(=O)[C@H](Cc2c[nH]c3ccccc23)NC(=O)[C@@H](N)CCCCNC(=O)CC[C@@H](C(=O)NCC(=O)O)NC(=O)[C@H](Cc2ccccc2)NC(=O)[C@H](CO)NC1=O` [compound 227] (HELM PEPTIDE1{K.W.F.L.I.S.F.E.G}$PEPTIDE1,PEPTIDE1,1:R3-8:R3$$$V2.0), the “β-Cat FP Hill slope” value was 0.5 and the Kd was in the range of 1000 to 10000 nM. Take `CC[C@@H]1NC(=O)[C@H]([C@@H](C)CC)NC(=O)[C@H](CC(C)C)NC(=O)[C@H](Cc2ccccc2)NC(=O)[C@H](Cc2c[nH]c3ccccc23)NC(=O)[C@@H](N)CCCCNC(=O)C[C@@H](C(=O)O)NC(=O)[C@H](Cc2c[nH]c3ccccc23)NC(=O)[C@H](C)NC1=O` [compound 244] (HELM PEPTIDE1{K.W.F.L.I.[Abu].A.W.D}$PEPTIDE1,PEPTIDE1,1:R3-9:R3$$$V2.0): the “β-Cat FP Hill slope” value is on record as 1.9 and the Kd fell in the range of 400 to 1000 nM.

As to `CC[C@H](C)[C@@H]1NC(=O)[C@H](CC(C)C)NC(=O)[C@H](Cc2ccccc2)NC(=O)[C@H](Cc2c[nH]c3ccccc23)NC(=O)[C@@H](N)CCCCNC(=O)CCCCCNC(=O)C[C@@H](C(=O)O)NC(=O)[C@H](Cc2c[nH]c3ccccc23)NC(=O)[C@H](C)NC(=O)[C@H](CS)NC1=O` [compound 249] (HELM PEPTIDE1{K.W.F.L.I.C.A.W.[O=C(O)[C@H](CC(=O)[*:2])N[*:1]].[O=C(CCCCCN[*:1])[*:2]]}$PEPTIDE1,PEPTIDE1,1:R3-10:R2$$$V2.0), the “β-Cat FP Hill slope” value came to 0.92 and the Kd lay within 400 to 1000 nM. As for `CC[C@@H]1NC(=O)[C@H]([C@@H](C)CC)NC(=O)[C@H](CC(C)C)NC(=O)[C@H](Cc2ccccc2)NC(=O)[C@H](Cc2c[nH]c3ccccc23)NC(=O)[C@@H](NC(C)=O)CCCCNC(=O)C[C@@H](C(=O)O)NC(=O)[C@H](Cc2c[nH]c3ccccc23)NC(=O)[C@H](C)NC1=O` [compound 243] (HELM PEPTIDE1{[ac].K.W.F.L.I.[Abu].A.W.D}$PEPTIDE1,PEPTIDE1,2:R3-10:R3$$$V2.0), the “β-Cat FP Hill slope” value came out at 0.7 and the Kd lay in the range of 10000 to 30000 nM. Turning to `CCCCCCCCC(=O)N[C@@H](Cc1c[nH]c2ccccc12)C(=O)N(C)[C@@H](C)C(=O)N[C@@H](CCC(N)=O)C(=O)N[C@H]1CCCNC(=O)CC[C@@H](C(=O)N[C@@H](Cc2c[nH]cn2)C(=O)N[C@H](C(=O)N[C@@H](CCC(N)=O)C(=O)N[C@@H](CCCNC(=N)N)C(=O)N[C@H](C(=O)N[C@@H](Cc2c[nH]c3ccccc23)C(=O)NCC(N)=O)C(C)C)C2CCCCC2)NC(=O)[C@H](CC(=O)O)NC(=O)[C@H](CC(C)C)NC(=O)[C@H]([C@@H](C)CC)NC1=O` [compound 425] (HELM PEPTIDE1{[CCCCCCCCC(=O)[*:2]].W.[meA].Q.[Orn].I.L.D.E.H.[O=C([C@@H](N[*:1])C1CCCCC1)[*:2]].Q.R.V.W.G.[am]}$PEPTIDE1,PEPTIDE1,5:R3-9:R3$$$V2.0), the Kd is less than 400 nM. As for `CC[C@H](C)[C@@H]1NC(=O)[C@H](CC(C)C)NC(=O)[C@H](Cc2ccccc2)NC(=O)[C@H](Cc2c[nH]c3ccccc23)NC(=O)[C@@H](N)CCCCNC(=O)CC[C@@H](C(=O)NCC(=O)O)NC(=O)[C@H](Cc2c[nH]c3ccccc23)NC(=O)[C@H](Cc2ccccc2)NC(=O)[C@H](CS)NC1=O` [compound 272] (HELM PEPTIDE1{K.W.F.L.I.C.F.W.E.G}$PEPTIDE1,PEPTIDE1,1:R3-9:R3$$$V2.0), the “β-Cat FP Hill slope” value was 0.84 and the Kd is 1000 to 10000 nM. For `CC[C@H](C)[C@@H]1NC(=O)[C@@H](NC(=O)[C@H](CCC(N)=O)NC(=O)[C@H](C)N(C)C(=O)[C@H](Cc2c[nH]c3ccccc23)NC(C)=O)CCCCNC(=O)CC[C@@H](C(=O)N[C@@H](Cc2c[nH]cn2)C(=O)N[C@H](C(=O)N[C@@H](CCC(N)=O)C(=O)N[C@@H](CCCNC(=N)N)C(=O)N[C@H](C(=O)N[C@@H](Cc2c[nH]c3ccccc23)C(=O)NCC(N)=O)C(C)C)C(C)C)NC(=O)[C@H](CC(=O)O)NC(=O)[C@H](CC2CCCCC2)NC1=O` [compound 407] (HELM PEPTIDE1{[ac].W.[meA].Q.K.I.[Cha].D.E.H.V.Q.R.V.W.G.[am]}$PEPTIDE1,PEPTIDE1,5:R3-9:R3$$$V2.0), the Kd was greater than 30000 nM.

On to `CCCCCCCCCCCC(=O)N[C@@H](Cc1c[nH]c2ccccc12)C(=O)N(C)[C@@H](C)C(=O)N[C@H]1CCC(=O)NCCCC[C@@H](C(=O)N[C@@H](CCC(=O)O)C(=O)N[C@@H](Cc2c[nH]cn2)C(=O)N[C@H](C(=O)N[C@@H](CCC(N)=O)C(=O)N[C@@H](CCCNC(=N)N)C(=O)N[C@H](C(=O)N[C@@H](Cc2c[nH]c3ccccc23)C(=O)NCC(N)=O)C(C)C)C(C)C)NC(=O)[C@H](CC(C)C)NC(=O)[C@H]([C@@H](C)CC)NC(=O)[C@H](CO)NC1=O` [compound 451] (HELM PEPTIDE1{[CCCCCCCCCCCC(=O)[*:2]].W.[meA].E.S.I.L.K.E.H.V.Q.R.V.W.G.[am]}$PEPTIDE1,PEPTIDE1,4:R3-8:R3$$$V2.0), for which the Kd lay within 1000 to 10000 nM. In the case of `CC[C@H](C)[C@@H]1NC(=O)[C@@H](NC(=O)[C@H](CCC(N)=O)NC(=O)[C@H](C)N(C)C(=O)[C@H](Cc2c[nH]c3ccccc23)NC(C)=O)CCCCNC(=O)CC[C@@H](C(=O)N[C@@H](Cc2c[nH]cn2)C(=O)N[C@H](C(=O)N[C@@H](CCC(N)=O)C(=O)N[C@@H](CCCNC(=N)N)C(=O)N[C@H](C(=O)N[C@@H](Cc2c[nH]c3ccccc23)C(=O)NCC(N)=O)C(C)C)C2CCCCC2)NC(=O)[C@H](CC(=O)O)NC(=O)[C@H](CC(C)C)NC1=O` [SEQ ID NO: 404, cyclo-AcNH-W-NmeA-QK*ILDE*H-Chg-QRVWG-NH2] (HELM PEPTIDE1{[ac].W.[meA].Q.K.I.L.D.E.H.[O=C([C@@H](N[*:1])C1CCCCC1)[*:2]].Q.R.V.W.G.[am]}$PEPTIDE1,PEPTIDE1,5:R3-9:R3$$$V2.0), the “Binding to β-catenin (fluorescence polarization)” value (5 nM labelled TCF4, 100 nM β-catenin, 10 nM to 30 uM inhibitor) is given as “binds β-catenin in a concentration-dependent manner”.
